Laboratory results taken from US20190070182A1, “USES OF PYRIMIDO-PYRIDAZINONES TO TREAT CANCER” (Asana Biosciences, LLC, priority 2015, published 2019).
Each block holds one compound with its values, some of them ahead of it.

Columns and labels:
[1] = system: multiple myeloma model derived from H929 cell line; assay: mouse model of multiple myeloma (H929); format: in vivo; details: H929 cell line (FIG. 5)
[2] = system: Pfeiffer ("Parental") DLBCL cell line; assay: cell proliferation, Pfeiffer parental; format: cell-based; details: Homo sapiens
Description: (§1) This activity of ASN002 was assessed using a diffuse large B-cell lymphoma (DLBCL) cell line, Pfeiffer (“Parental”); and an ibrutinib-resistant variant of the same cell line (“Ibrutinib-R”), which was developed by growing the cells in the presence of increasing concentrations of ibrutinib. Pools of ibrutinib-resistant cells were tested in this study. The drug idelalisib (which was approved by the FDA in […] for the treatment of B-cell blood cancers) was used for comparison as a reference compound. The data are set forth in Table A (IC50 is the half maximal inhibitory concentration).

ZR75 = assay: antiproliferative activity, solid tumor cell line; format: cell-based; details: ZR75, Breast
Description: (§2) Example 2. The Anti-Cancer Activity of ASN002 was Also Evaluated in Many Solid Tumor Cell Lines.

HT1197 = assay: antiproliferative activity, solid tumor cell line; format: cell-based; details: Homo sapiens; HT1197, Bladder
Description: as §2

BT20 = assay: antiproliferative activity, solid tumor cell line; format: cell-based; details: Homo sapiens, BT-20; BT20, Breast
Description: as §2

MDAMB453 = assay: antiproliferative activity, solid tumor cell line; format: cell-based; details: Homo sapiens, MDA-MB-453; MDAMB453, Breast
Description: as §2

MFE296 = assay: antiproliferative activity, solid tumor cell line; format: cell-based; details: Homo sapiens, MFE-296; MFE296, Endometrial
Description: as §2

LNCaP = assay: antiproliferative activity, solid tumor cell line; format: cell-based; details: Homo sapiens, Prostate
Description: as §2

SCaBER = assay: antiproliferative activity, solid tumor cell line; format: cell-based; details: Homo sapiens, Bladder
Description: as §2

SW1990 = assay: antiproliferative activity, solid tumor cell line; format: cell-based; details: Homo sapiens; SW1990, Pancreas
Description: as §2

HepG2 = assay: antiproliferative activity, solid tumor cell line; format: cell-based; details: Homo sapiens; HepG2, Liver
Description: as §2

Hec1A = assay: antiproliferative activity, solid tumor cell line; format: cell-based; details: Homo sapiens, HEC-1-A, Endometrial
Description: as §2

SKHEP1 = assay: antiproliferative activity, solid tumor cell line; format: cell-based; details: Homo sapiens, SK-HEP1; SKHEP1, Endothelial
Description: as §2

UMUC3 = assay: antiproliferative activity, solid tumor cell line; format: cell-based; details: Homo sapiens; UMUC3, Bladder
Description: as §2

H460 = assay: antiproliferative activity, solid tumor cell line; format: cell-based; details: Homo sapiens, NCI-H460; H460, Lung
Description: as §2

5637 = assay: antiproliferative activity, solid tumor cell line; format: cell-based; details: 5637, Bladder
Description: as §2

EAhy296 = assay: antiproliferative activity, solid tumor cell line; format: cell-based; details: EAhy296, Endothelial
Description: as §2

A549 = assay: antiproliferative activity, solid tumor cell line; format: cell-based; details: Homo sapiens; A549, Lung
Description: as §2

HUG1N = assay: antiproliferative activity, solid tumor cell line; format: cell-based; details: Gasrtic
Description: as §2

KE39 = assay: antiproliferative activity, solid tumor cell line; format: cell-based; details: KE39, Gastric
Description: as §2

CFPac1 = assay: antiproliferative activity, solid tumor cell line; format: cell-based; details: Homo sapiens, CFPAC-1; CFPac1, Pancreas
Description: as §2

SW480 = assay: antiproliferative activity, solid tumor cell line; format: cell-based; details: Homo sapiens; SW480, Colon
Description: as §2

PC3 = assay: antiproliferative activity, solid tumor cell line; format: cell-based; details: Homo sapiens, PC-3; PC3, Prostate
Description: as §2

AsPC1 = assay: antiproliferative activity, solid tumor cell line; format: cell-based; details: Homo sapiens; AsPC1, Pancreas
Description: as §2

MDA-MB-231 = assay: antiproliferative activity, solid tumor cell line; format: cell-based; details: Homo sapiens; MDA-MB-231, Breast
Description: as §2

HT29 = assay: antiproliferative activity, solid tumor cell line; format: cell-based; details: Homo sapiens, HT-29; HT29, Colon
Description: as §2

MDAMB468 = assay: antiproliferative activity, solid tumor cell line; format: cell-based; details: Homo sapiens, MDA-MB-468; MDAMB468, Breast
Description: as §2

H1299 = assay: antiproliferative activity, solid tumor cell line; format: cell-based; details: Homo sapiens, NCI-H1299; H1299, Lung
Description: as §2

MFM-223 = assay: antiproliferative activity, solid tumor cell line; format: cell-based; details: Homo sapiens; MFM-223, Breast
Description: as §2

SKOV3 = assay: antiproliferative activity, solid tumor cell line; format: cell-based; details: Homo sapiens, SK-OV-3; SKOV3, Ovarian
Description: as §2

DU145 = assay: antiproliferative activity, solid tumor cell line; format: cell-based; details: Homo sapiens, DU-145; DU145, Prostate
Description: as §2

LoVo = assay: antiproliferative activity, solid tumor cell line; format: cell-based; details: Homo sapiens, Colon
Description: as §2

U87MG = assay: antiproliferative activity, solid tumor cell line; format: cell-based; details: Homo sapiens, U-87 MG, Glioblastoma
Description: as §2

Y79 = assay: antiproliferative activity, solid tumor cell line; format: cell-based; details: Homo sapiens; Y79, Retiblastoma
Description: as §2

MKN1 = assay: antiproliferative activity, solid tumor cell line; format: cell-based; details: Homo sapiens, MKN-1; MKN1, Gastric
Description: as §2

A375 = assay: antiproliferative activity, solid tumor cell line; format: cell-based; details: Homo sapiens, A-375; A375, Melanoma
Description: as §2

Colo205 = assay: antiproliferative activity, solid tumor cell line; format: cell-based; details: Homo sapiens, COLO 205; Colo205, Colon
Description: as §2

J82 = assay: antiproliferative activity, solid tumor cell line; format: cell-based; details: Homo sapiens; J82, Bladder
Description: as §2

BxPC3 = assay: antiproliferative activity, solid tumor cell line; format: cell-based; details: Homo sapiens, BXPC-3; BxPC3, Pancreas
Description: as §2

HeLa = assay: antiproliferative activity, solid tumor cell line; format: cell-based; details: Homo sapiens, Cervical
Description: as §2

HCT116 = assay: antiproliferative activity, solid tumor cell line; format: cell-based; details: Homo sapiens, HCT-116; HCT116, Colon
Description: as §2

CAOV3 = assay: antiproliferative activity, solid tumor cell line; format: cell-based; details: Homo sapiens, Caov-3; CAOV3, Ovary
Description: as §2

C33A = assay: antiproliferative activity, solid tumor cell line; format: cell-based; details: Homo sapiens, C-33-A, Cervical
Description: as §2

JEG3 = assay: antiproliferative activity, solid tumor cell line; format: cell-based; details: Homo sapiens, JEG-3; JEG3, Placenta
Description: as §2

SW780 = assay: antiproliferative activity, solid tumor cell line; format: cell-based; details: Homo sapiens; SW780, Bladder
Description: as §2

TCCSUP = assay: antiproliferative activity, solid tumor cell line; format: cell-based; details: Homo sapiens, TCC-SUP, Bladder
Description: as §2

SKMEL2 = assay: antiproliferative activity, solid tumor cell line; format: cell-based; details: Homo sapiens, SK-MEL-2; SKMEL2, Melanoma
Description: as §2

HCC1937 = assay: antiproliferative activity, solid tumor cell line; format: cell-based; details: Homo sapiens; HCC1937, Breast
Description: as §2

MIAPACA2 = assay: antiproliferative activity, solid tumor cell line; format: cell-based; details: Homo sapiens, MIA PaCa-2; MIAPACA2, Pancreas
Description: as §2

MDAMB361 = assay: antiproliferative activity, solid tumor cell line; format: cell-based; details: Homo sapiens, MDA-MB-361; MDAMB361, Breast
Description: as §2

H1581 = assay: antiproliferative activity, solid tumor cell line; format: cell-based; details: Homo sapiens, NCI-H1581; H1581, Lung
Description: as §2

MCF7 = assay: antiproliferative activity, solid tumor cell line; format: cell-based; details: Homo sapiens; MCF7, Breast
Description: as §2

HCC1954 = assay: antiproliferative activity, solid tumor cell line; format: cell-based; details: Homo sapiens; HCC1954, Breast
Description: as §2

Caki1 = assay: antiproliferative activity, solid tumor cell line; format: cell-based; details: Homo sapiens, CAKI-1; Caki1, Kidney
Description: as §2

SKMEL28 = assay: antiproliferative activity, solid tumor cell line; format: cell-based; details: Homo sapiens, SK-MEL-28; SKMEL28, Melanoma
Description: as §2

HT1376 = assay: antiproliferative activity, solid tumor cell line; format: cell-based; details: Homo sapiens, HT-1376; HT1376, Bladder
Description: as §2

H1975 = assay: antiproliferative activity, solid tumor cell line; format: cell-based; details: Homo sapiens, NCI-H1975; H1975, Lung
Description: as §2

HCC1806 = assay: antiproliferative activity, solid tumor cell line; format: cell-based; details: Homo sapiens; HCC1806, Breast
Description: as §2

T24 = assay: antiproliferative activity, solid tumor cell line; format: cell-based; details: Homo sapiens, T-24; T24, Bladder
Description: as §2

BT474 = assay: antiproliferative activity, solid tumor cell line; format: cell-based; details: Homo sapiens, BT-474; BT474, Breast
Description: as §2

[3] = system: DLBCL xenograft derived from Pfeiffer cell line; assay: DLBCL xenograft mouse model (Pfeiffer); format: in vivo; details: Pfeiffer cell line (FIG. 3)
[4] = system: Pfeiffer (DLBCL cell line); assay: caspase 3/7 apoptosis assay; format: cell-based; details: Homo sapiens, 24-hour treatment (FIG. 1), read-out: EC50, induced apoptosis (caspase 3/7 assay)
[5] = system: DLBCL xenograft derived from SU-DHL-6 cell line; assay: DLBCL xenograft mouse model (SU-DHL-6); format: in vivo; details: SU-DHL-6 cell line (FIG. 4)
[6] = system: human erythroleukemia model derived from HEL cell line; assay: mouse model of human erythroleukemia (HEL); format: in vivo; details: HEL cell line (FIG. 6)
[7] = system: hematological malignant cell lines (leukemia, lymphoma, multiple myelomas); assay: antiproliferative activity, hematological malignant cell line panel; format: cell-based; details: cell line panel representing leukemia, multiple myelomas (FIG. 2)
[8] = system: ibrutinib-resistant variant of Pfeiffer ("Ibrutinib-R"); assay: cell proliferation, ibrutinib-resistant Pfeiffer; format: cell-based; details: Homo sapiens, pools of resistant cells
Description: as §1

IC50 (ZR75): 420 nM
IC50 (HT1197): 540 nM
IC50 (BT20): 2130 nM
IC50 (MDAMB453): 1740 nM
IC50 (MFE296): 880 nM
IC50 (LNCaP): 1070 nM
IC50 (SCaBER): 450 nM
IC50 (SW1990): 1620 nM
IC50 (HepG2): 240 nM
IC50 (Hec1A): 660 nM
IC50 (SKHEP1): > 10000 nM
IC50 (UMUC3): 2280 nM
IC50 (H460): 910 nM
IC50 5637: 420 nM
IC50 (EAhy296): 1800 nM
IC50 (A549): 460 nM
IC50 (HUG1N): 810 nM
IC50 (KE39): 860 nM
IC50 (CFPac1): 850 nM
IC50 (SW480): 600 nM
IC50 (PC3): 1980 nM
IC50 (AsPC1): 840 nM
IC50 (MDA-MB-231): 770 nM
IC50 (HT29): 300 nM
IC50 (MDAMB468): 1460 nM
IC50 (H1299): > 10000 nM
IC50 (MFM-223): 400 nM
IC50 (SKOV3): 730 nM
IC50 (DU145): 990 nM
IC50 (LoVo): 150 nM
IC50 (U87MG): > 10000 nM
IC50 (Y79): > 10000 nM
IC50 (MKN1): 880 nM
IC50 (A375): 610 nM
IC50 (Colo205): 610 nM
IC50 (J82): 2750 nM
IC50 (BxPC3): 660 nM
IC50 (HeLa): 770 nM
IC50 (HCT116): 430 nM
IC50 (CAOV3): 420 nM
IC50 (C33A): 500 nM
IC50 (JEG3): > 10000 nM
IC50 (SW780): > 10000 nM
IC50 (TCCSUP): 340 nM
IC50 (SKMEL2): 1030 nM
IC50 (HCC1937): > 10000 nM
IC50 (MIAPACA2): 2770 nM
IC50 (MDAMB361): 490 nM
IC50 (H1581): 380 nM
IC50 (MCF7): 600 nM
IC50 (HCC1954): > 10000 nM
IC50 (Caki1): 330 nM
IC50 (SKMEL28): > 10000 nM
IC50 (HT1376): 90 nM
IC50 (H1975): 850 nM
IC50 (HCC1806): 1630 nM
IC50 (T24): 440 nM
IC50 (BT474): > 10000 nM
EC50 [4]: 120 nM
SMILES: N#CCC1CCN(c2nc(Nc3ccc(N4CCC(O)CC4)cc3)c3c(=O)[nH]ncc3n2)CC1 [ASN002, 2-(1-(4-((4-(4-hydroxypiperidin-1-yl)phenyl)amino)-5-oxo-5,6-dihydropyrimido[4,5-d]pyridazin-2-yl)piperidin-4-yl)acetonitrile]
tumor growth [1]: inhibited tumor growth
IC50 [2]: 80 nM
tumor growth [3]: inhibited tumor growth
tumor growth [5]: inhibited tumor growth
hind limb paralysis [6]: delayed the hind limb paralysis
antiproliferative activity [7]: strong antiproliferative activity
IC50 [8]: 320 nM

SMILES: C=CC(=O)N1CCC[C@@H](n2nc(-c3ccc(Oc4ccccc4)cc3)c3c(N)ncnc32)C1 [Ibrutinib, ibrutinib]
IC50 [2]: 270 nM
IC50 [8]: 4500 nM

SMILES: CC[C@H](Nc1ncnc2[nH]cnc12)c1nc2cccc(F)c2c(=O)n1-c1ccccc1 [Idelalisib, idelalisib]
IC50 [2]: 130 nM
IC50 [8]: > 10000 nM
